Assay results: patent publication US11256170B2, “Compound, resist composition, and method for forming resist pattern using it” (Mitsubishi Gas Chemical Company, Inc., priority 2015, dated 2022)

Test: Safe solvent solubility test of compound
Type: physicochemical
Conditions: for Safe solvent CHN (solubility) / Safe solvent PGME (solubility) / Safe solvent PGMEA (solubility): 23° C., ultrasonic waves 30 minutes, visual; for solubility in safe solvents (in words): summary of Table 1
Method: The solubilities of the compound in CHN, PGME, and PGMEA were evaluated according to the following criteria utilizing the amount of dissolution in each solvent. The amount of dissolution was measured at 23° C. by precisely weighing the compound into a test tube, adding a subject solvent so as to attain a predetermined concentration, applying ultrasonic waves for 30 minutes in an ultrasonic cleaner, and visually observing the subsequent state of the fluid.
A: 5.0% by mass≤Amount of dissolution
B: 3.0% by mass≤Amount of dissolution<5.0% by mass
C: Amount of dissolution<3.0% by mass

Row | Compound | Safe solvent CHN (solubility) | Safe solvent PGME (solubility) | Safe solvent PGMEA (solubility) | solubility in safe solvents (in words)
1 | CC(C)(C)OC(=O)Oc1ccc2c3c(ccc2c1)Oc1ccc2cc(OC(=O)OC(C)(C)C)ccc2c1C3c1ccc(-c2ccccc2)cc1 [XBisN-1-BOC, reference compound] | A (5.0% by mass≤Amount of dissolution) | B (3.0% by mass≤Amount of dissolution<5.0% by mass) | A (5.0% by mass≤Amount of dissolution) | good solubility
2 | CC(C)(C)OC(=O)OCc1ccc2ccc3c(c2c1)C(c1cccc(I)c1)c1c(ccc2ccc(COC(=O)OC(C)(C)C)cc12)O3 [Compound B-1-MeBOC] | A (5.0% by mass≤Amount of dissolution) | A (5.0% by mass≤Amount of dissolution) | A (5.0% by mass≤Amount of dissolution) | good solubility
3 | COc1cc(C2c3c(ccc4cc(OC(=O)OC(C)(C)C)ccc34)Oc3ccc4cc(OC(=O)OC(C)(C)C)ccc4c32)cc(I)c1OC(=O)OC(C)(C)C [Compound A-3-BOC] | A (5.0% by mass≤Amount of dissolution) | A (5.0% by mass≤Amount of dissolution) | B (3.0% by mass≤Amount of dissolution<5.0% by mass) | good solubility

The remaining lines, values ahead:

Row | Safe solvent CHN (solubility) | Safe solvent PGME (solubility) | Safe solvent PGMEA (solubility) | solubility in safe solvents (in words) | Compound
4 | A (5.0% by mass≤Amount of dissolution) | A (5.0% by mass≤Amount of dissolution) | A (5.0% by mass≤Amount of dissolution) | good solubility | CC(C)(C)OC(=O)Oc1ccc2c3c(ccc2c1)Oc1ccc2cc(OC(=O)OC(C)(C)C)ccc2c1C3c1cccc(I)c1 [Compound A-1-BOC]
5 | A (5.0% by mass≤Amount of dissolution) | A (5.0% by mass≤Amount of dissolution) | A (5.0% by mass≤Amount of dissolution) | good solubility | COc1cc(C2c3c(ccc4cc(OCC(=O)OC(C)(C)C)ccc34)Oc3ccc4cc(OCC(=O)OC(C)(C)C)ccc4c32)cc(I)c1OCC(=O)OC(C)(C)C [Compound A-3-MeBOC]
6 | A (5.0% by mass≤Amount of dissolution) | A (5.0% by mass≤Amount of dissolution) | A (5.0% by mass≤Amount of dissolution) | good solubility | CC(C)(C)OC(=O)COc1ccc2c3c(ccc2c1)Oc1ccc2cc(OCC(=O)OC(C)(C)C)ccc2c1C3c1cccc(I)c1 [Compound A-1-MeBOC]
7 | A (5.0% by mass≤Amount of dissolution) | A (5.0% by mass≤Amount of dissolution) | A (5.0% by mass≤Amount of dissolution) | good solubility | CC(C)(C)OC(=O)Oc1ccc2ccc3c(c2c1)C(c1cccc(I)c1)c1c(ccc2ccc(OC(=O)OC(C)(C)C)cc12)O3 [Compound B-1-BOC]
